This passage reports ED50 results from patent EP0054512A2, “Cephalosporin esters, process for their preparation and pharmaceutical compositions containing them” (CIBA-GEIGY AG, priority 1980, dated 1982).

Usually ED50 stands for the dose at which the effect has come halfway, by size or by number of responders.

The assay has as its system Escherichia coli, Proteus spp. und anderen. In words: Systemic gram-negative infection in the mouse, oral administration. On the set-up: species or system Maus. To be noted: in vivo, oral administration to the mouse, systemic gram-negative infections, range across pathogens. An excerpt:
Die Verbindungen der Formel I, worin Am eine freie Aminogruppe ist und ihre pharmazeutisch verwendbaren, nichttoxischen Salze sind wertvolle, antibiotisch wirksame Substanzen, die insbesondere als antibakterielle Antibiotika verwendet werden können.

On to `CCOC(=O)OC(C)OC(=O)C1=CCS[C@@H]2[C@H](NC(=O)/C(=N\OC)c3csc(N)n3)C(=O)N12` (stereo partly shown) [7ß-[2-(2-Amino-4-thiazolyl)-2-methoxyiminoacetamido]-3-cephem-4-carbonsäure-1-äthoxycarbonyloxyäthylester], for which the ED50 was in the range of 0.3 to 150 mg/kg.
